≈ marks a conversion by molar mass, not a printed value. Like-named read-outs stand apart in the source and are kept apart here.
Columns and labels:
[1] = tested on: Acinetobacter baumanii/haemolyticus: Multidrug-resistant clinical isolate (AB-3167); test: MIC determination (CLSI), AB-3167; assay type: cell-based; details: for MIC: Acinetobacter baumannii
How it was run: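 Multidrug-resistant clinical isolate AB-3167 (A. baumannii/haemolyticus) tested for minimum inhibitory concentration following CLSI dilution susceptibility standards M7-A7 and M100-S18.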

[2] = tested on: Klebsiella pneumoniae: Ciprofloxacin-resistant isolate, ESBL, clinical isolate (KP-3700); test: MIC determination (CLSI), KP-3700; assay type: cell-based
How it was run: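 Strain KP-3700, a clinical isolate producing extended-spectrum β-lactamases and resistant to ciprofloxacin, was tested. Minimum inhibitory concentrations determined via CLSI dilution methodology (M7-A7; M100-S18).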

[3] = target: Pseudomonas aeruginosa LpxC enzyme (Pseudomonas aeruginosa (strain ATCC 15692 / DSM 22644 / CIP 104116 / JCM 14847 / LMG 12228 / 1C / PRS 101 / PAO1), UniProt P47205); test: IC50 Assay, LpxC Enzyme from P. aeruginosa (PA LpxC Enzyme IC50); assay type: biochemical
Protocol: In order to assess the compounds biological activity, selected in-vitro assays were conducted on selected compounds. One of the assays measured the compounds ability to disrupt the synthesis of lipopolysaccharide, LPS, which is a component of the outer membrane of Gram-negative bacteria. Disruption of this synthesis is lethal to the bacteria. The assay determined the compound's ability to inhibit LpxC, which is the first enzyme in the biosynthetic pathway for LPS (measured as IC50). Additionally, MICs (minimal inhibitory concentrations) were determined for several bacteria. The specific protocols are described below:
A) IC50 Assay, LpxC Enzyme from P. aeruginosa (Labled as PA LpxC Enzyme IC50
At the end of 1 hour, 5 ul of 1N HCl was added to stop the enzyme reaction; the plates were centrifuged, and then processed with the BioTrove Rapidfire HTMS Mass Spectrometry System. A no-enzyme control was used in calculating the IC50 values from the percent conversion values.

[4] = tested on: Pseudomonas aeruginosa UI-18: Wild-type (PA-7); test: MIC determination (CLSI), PA-7; assay type: cell-based; details: for MIC: Pseudomonas aeruginosa
How it was run: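 Wild-type P. aeruginosa UI-18 tested for minimum inhibitory concentration. Broth/agar dilution following CLSI standards (M7-A7, M100-S18).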

[5] = tested on: Escherichia coli EC-1: VOGEL, mouse virulent; test: MIC determination (CLSI), EC-1; assay type: cell-based; details: for MIC: Escherichia coli
How it was run: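 E. coli Vogel, a mouse-virulent strain (EC-1), was tested. MICs were set by dilution susceptibility testing per CLSI standards M7-A7/M100-S18.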

[6] = Table 3, read-out: PA LpxC enzyeme IC^50
[7] = Acinetobacter baumanii/haemolyticus multidrug-resistant clinical isolate AB-3167
[8] = P. aeruginosa LpxC enzyme, read-out: PA LpxC enzyeme IC50
[9] = Pseudomonas aeruginosa UI-18 wild-type PA-7
[10] = Escherichia coli EC-1 VOGEL, mouse virulent
[11] = Table 1, MIC, read-out: AB-3167 (MIC)
[12] = Table 1, read-out: PA LpxC enzyeme IC50
[13] = Table 1, MIC, read-out: PA-7 (MIC)
[14] = Acinetobacter baumanii/haemolyticus AB-3167
[15] = Pseudomonas aeruginosa UI-18 (PA-7)

Structure (SMILES)	MIC ([1]; Table 3, read-out: AB-3167 MIC) [µg/mL]	KP-3700 MIC [2]	IC50 [3, 6] [nM]	MIC ([4]; Table 3, read-out: PA-7 MIC) [µg/mL]	MIC ([5]; read-out: EC-1 MIC) [µg/mL]	AB-3167 MIC [1, 7]	IC50 [3, 8] [nM]	PA-7 MIC [4, 9]	EC-1 MIC [5, 10]	also measured
CC(CCc1ccc(OCc2cccnc2)cc1)(C(=O)NO)S(C)(=O)=O (centres unmarked) [Example 303, N-hydroxy-2-methyl-2-(methylsulfonyl)-4-[4-(pyridin-3-ylmethoxy)phenyl]butanamide]	≥ 64	≧64 mg/L	4.58	16 (≈ 42.3 µM)	≥ 64					
CC(=O)c1ccc(-c2ccc(CCC(C)(C(=O)NO)S(C)(=O)=O)cc2)cc1F (centres unmarked) [Example 184]		2 µg/mL				32 µg/mL	0.155	0.5 µg/mL	4 µg/mL	
CC(CCc1ccc(Sc2ccccc2)cc1)(C(=O)NO)S(C)(=O)=O (centres unmarked) [Example 12, N-Hydroxy-2-methyl-2-(methylsulfonyl)-4-[4-(phenylthio)phenyl]butanamide]		32 µg/mL								MIC [1, 11]: 8 µg/mL (≈ 21.1 µM); IC50 [3, 12]: 11.9 nM; MIC [4, 13]: 8 µg/mL (≈ 21.1 µM); MIC ([5]; read-out: EC-1: (MIC)): 8 µg/mL (≈ 21.1 µM)
CC(CCc1ccc(C2=CCOCC2)cc1)(C(=O)NO)S(C)(=O)=O (centres unmarked) [Example 225]		≧64 mg/L					1.88			AB-3167 MIC [1, 14]: ≧64 mg/L; PA-7 MIC [4, 15]: 4 µg/mL; EC-1 MIC ([5]; Escherichia coli EC-1): 32 µg/mL
C[C@@](CCc1ccc(-c2ccc(O)cc2)cc1)(C(=O)NO)S(C)(=O)=O [Example 23, (2R)—N-hydroxy-4-(4′-hydroxybiphenyl-4-yl)-2-methyl-2-(methylsulfonyl)butanamide]		8 µg/mL								MIC [1, 11]: ≥ 64 µg/mL; IC50 [3, 12]: 0.18 nM; MIC [4, 13]: 2 µg/mL (≈ 5.5 µM); MIC ([5]; read-out: EC-1: (MIC)): 4 µg/mL (≈ 11 µM)
CC(CCc1ccc(OCCCOc2ccccc2)cc1)(C(=O)NO)S(C)(=O)=O (centres unmarked) [Example 297, N-hydroxy-2-methyl-2-(methylsulfonyl)-4-[4-(3-phenoxypropoxy)phenyl]butanamide]	32 (≈ 75.9 µM)	≧64 mg/L	42.5	≥ 64	16 (≈ 38 µM)					
Cc1ccc(-c2ccc(CCC(C)(C(=O)NO)S(C)(=O)=O)cc2)cc1C (centres unmarked) [Example 83]		4 µg/mL				8 µg/mL	0.242	2 µg/mL	1 µg/mL	
CC(CCc1ccc(OCCC2CCOCC2)cc1)(C(=O)NO)S(C)(=O)=O (centres unmarked) [Example 281, N-hydroxy-2-methyl-2-(methylsulfonyl)-4-{4-[2-(tetrahydro-2H-pyran-4-yl)ethoxy]phenyl}butanamide]	≥ 64	≧64 mg/L	6.77	32 (≈ 80.1 µM)	≥ 64					
Cc1cc(-c2ccc(C#N)cc2)ccc1CCC(C)(C(=O)NO)S(C)(=O)=O (centres unmarked) [Example 161]		16 µg/mL				≧64 mg/L	0.725	4 µg/mL	1 µg/mL	
CC(=O)c1ccc(-c2ccc(CCC(C)(C(=O)NO)S(C)(=O)=O)cn2)cc1 (centres unmarked) [Example 133]		≧64 mg/L				≧64 mg/L	0.985	16 µg/mL	16 µg/mL	
Cc1cccc(Cc2noc(COc3ccc(CCC(C)(C(=O)NO)S(C)(=O)=O)cc3)n2)c1 (centres unmarked) [Example 289, N-hydroxy-2-methyl-4-(4-{[3-(3-methylbenzyl)-1,2,4-oxadiazol-5-yl]methoxy}phenyl)-2-(methylsulfonyl)butanamide]	≥ 64	≧64 mg/L	10.4	≥ 64	32 (≈ 67.6 µM)					
C[C@@](CCc1ccc(-c2ccc(C(=O)N3CCC(O)CC3)cc2)cc1)(C(=O)NO)S(C)(=O)=O [Example 192]		≧64 mg/L				≧64 mg/L	3.39	16 µg/mL	≧64 mg/L	
CC(CCc1ccc(-c2cccc(Cl)c2Cl)cc1)(C(=O)NO)S(C)(=O)=O (centres unmarked) [Example 59]		2 µg/mL				2 µg/mL	0.213	2 µg/mL	0.5 µg/mL	
CCc1ccccc1COc1ccc(CCC(C)(C(=O)NO)S(C)(=O)=O)cc1 (centres unmarked) [Example 306, 4-{4-[(2-ethylbenzyl)oxy]phenyl}-N-hydroxy-2-methyl-2-(methylsulfonyl)butanamide]	16 (≈ 39.5 µM)	32 µg/mL	0.813	16 (≈ 39.5 µM)	8 (≈ 19.7 µM)					
COc1cccc(-c2ccc(CC[C@](C)(C(=O)NO)S(C)(=O)=O)cc2)c1 [Example 170]		≧64 mg/L				16 µg/mL	54	≧64 mg/L	≧64 mg/L	
C[C@@](CCc1ccc(-c2ccc(CC(=O)N3CCC(O)CC3)cc2)cc1)(C(=O)NO)S(C)(=O)=O [Example 191]		≧64 mg/L				≧64 mg/L	2.63	16 µg/mL	≧64 mg/L	
CC(CCc1ccc(OCc2cccc(F)c2F)cc1)(C(=O)NO)S(C)(=O)=O (centres unmarked) [Example 247, 4-{4-[(2,3-difluorobenzyl)oxy]phenyl}-N-hydroxy-2-methyl-2-(methylsulfonyl)butanamide]	16 (≈ 38.7 µM)	16 µg/mL	0.325	2 (≈ 4.84 µM)	2 (≈ 4.84 µM)					
CC(Oc1ccc(CCC(C)(C(=O)NO)S(C)(=O)=O)cc1)c1ccccc1 (centres unmarked) [Example 282, N-hydroxy-2-methyl-2-(methylsulfonyl)-4-[4-(1-phenylethoxy)phenyl]butanamide]	32 (≈ 81.7 µM)	≧64 mg/L	9.55	≥ 64	8 (≈ 20.4 µM)					
CC(CCc1ccc(-c2cc(F)ccc2F)cc1)(C(=O)NO)S(C)(=O)=O (centres unmarked) [Example 38]		32 µg/mL				16 µg/mL	0.752	1 µg/mL	2 µg/mL	
CC(C)(O)C(=O)c1ccc(-c2ccc(CC[C@](C)(C(=O)NO)S(C)(=O)=O)cc2)cc1 [Example 217]		4 µg/mL					0.278			AB-3167 MIC [1, 14]: ≧64 mg/L; PA-7 MIC [4, 15]: 4 µg/mL; EC-1 MIC ([5]; Escherichia coli EC-1): 0.5 µg/mL
CC(CCc1ccc(-c2ccc3ncccc3c2)c(F)c1)(C(=O)NO)S(C)(=O)=O (centres unmarked) [Example 195]		4 µg/mL				32 µg/mL	0.733	2 µg/mL	1 µg/mL	
CC(=O)Nc1ccc(-c2ccc(CCC(C)(C(=O)NO)S(C)(=O)=O)cc2F)cc1 (centres unmarked) [Example 207]		≧64 mg/L					7.09			AB-3167 MIC [1, 14]: ≧64 mg/L; PA-7 MIC [4, 15]: 16 µg/mL; EC-1 MIC ([5]; Escherichia coli EC-1): 32 µg/mL
